Source: PubChem BioAssay AID256 (DTP/NCI, 2004)
“And” between values parts separate entries of the source, which are not always exact repeats. Identical values can stand only once. Inconclusive results and toxic doses are left out. Rule for the calls: active = survival T/C of 150% or more; inactive = T/C below 125% in these data.

Tested on: CD2F1 mice, L1210 leukemia ip, survival T/C
Test: NCI In Vivo Anticancer Drug Screen. Data for tumor model L1210 Leukemia (intraperitoneal) in CD2F1 (CDF1) mice
Conditions: higher = longer survival
Outline: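 Transplantable tumor in mice; compound-treated vs vehicle-treated groups. Read-out = treated/control ratio of the measured endpoint.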

[1] = endpoint: mean survival time, dose: 12.5 mg/kg/injection, schedule: Q01DX009 (ip), vehicle: saline with Tween-80
[2] = endpoint: mean survival time, dose: 100.0 mg/kg/injection, schedule: Q01DX009 (ip), vehicle: saline
[3] = endpoint: mean survival time, dose: 100.0 mg/kg/injection, schedule: Q04DX003 (ip), vehicle: saline with Tween-80
[4] = endpoint: mean survival time, dose: 200.0 mg/kg/injection, schedule: Q04DX003 (ip), vehicle: saline with Tween-80
[5] = endpoint: mean survival time, dose: 400.0 mg/kg/injection, schedule: Q04DX003 (ip), vehicle: saline with Tween-80
[6] = endpoint: mean survival time, dose: 50.0 mg/kg/injection, schedule: Q04DX002 (ip), vehicle: saline with Tween-80
[7] = endpoint: mean survival time, dose: 100.0 mg/kg/injection, schedule: Q04DX002 (ip), vehicle: saline with Tween-80
[8] = endpoint: mean survival time, dose: 200.0 mg/kg/injection, schedule: Q04DX002 (ip), vehicle: saline with Tween-80
[9] = endpoint: mean survival time, dose: 25.0 mg/kg/injection, schedule: Q01DX009 (ip), vehicle: saline
[10] = endpoint: mean survival time, dose: 50.0 mg/kg/injection, schedule: Q01DX009 (ip), vehicle: saline
[11] = endpoint: mean survival time, dose: 100.0 mg/kg/injection, schedule: Q01DX009 (ip), vehicle: saline with Tween-80
[12] = endpoint: mean survival time, dose: 200.0 mg/kg/injection, schedule: Q01DX009 (ip), vehicle: saline with Tween-80
[13] = endpoint: mean survival time, dose: 400.0 mg/kg/injection, schedule: Q01DX009 (ip), vehicle: saline with Tween-80
[14] = endpoint: mean survival time, dose: 100.0 mg/kg/injection, schedule: Q01DX009 (ip), vehicle: Klucel (hydroxypropylcellulose) (HPC)
[15] = endpoint: mean survival time, dose: 200.0 mg/kg/injection, schedule: Q01DX009 (ip), vehicle: Klucel (hydroxypropylcellulose) (HPC)
[16] = endpoint: mean survival time, dose: 400.0 mg/kg/injection, schedule: Q01DX009 (ip), vehicle: Klucel (hydroxypropylcellulose) (HPC)
[17] = endpoint: mean survival time, dose: 100.0 mg/kg/injection, schedule: Q01DX001 (ip), vehicle: Klucel (hydroxypropylcellulose) (HPC)
[18] = endpoint: mean survival time, dose: 200.0 mg/kg/injection, schedule: Q01DX001 (ip), vehicle: Klucel (hydroxypropylcellulose) (HPC)
[19] = endpoint: mean survival time, dose: 400.0 mg/kg/injection, schedule: Q01DX001 (ip), vehicle: Klucel (hydroxypropylcellulose) (HPC)
[20] = endpoint: mean survival time, dose: 12.5 mg/kg/injection, schedule: Q01DX009 (ip), vehicle: saline

Measured: T/C

CCCCCCCC(=O)[O][Hg][CH2]C1COC([CH2][Hg][O]C(=O)CCCCCCC)CO1 (stereo unspecified)
inactive: endpoint: mean survival time, dose: 6.25 mg/kg/injection, schedule: Q01DX009 (ip), vehicle: saline with Tween-80 106 % of control | [1] 96 % of control

OCC(F)(F)F
inactive: [2] 123 % of control | [3] 108 % of control | [4] 110 % of control | [5] 115 % of control

CC(=O)Nc1cc2c(ncn2C2OC(CO)C(O)C2O)c(Br)n1 (stereo unspecified)
inactive: endpoint: mean survival time, dose: 12.5 mg/kg/injection, schedule: Q01DX005 (ip), vehicle: water 93 % of control | endpoint: mean survival time, dose: 25.0 mg/kg/injection, schedule: Q01DX005 (ip), vehicle: water 94 % of control | endpoint: mean survival time, dose: 50.0 mg/kg/injection, schedule: Q01DX005 (ip), vehicle: water 98 % of control | endpoint: mean survival time, dose: 200.0 mg/kg/injection, schedule: Q01DX005 (ip), vehicle: water 94 % of control

C/C=C1\C(=O)O[C@@]23C=C[C@H]4C(C(=O)OC)=CO[C@@H](O[C@H]12)[C@H]43
inactive: endpoint: mean survival time, dose: 50.0 mg/kg/injection, schedule: Q01DX001 (ip), vehicle: saline 95 % of control

O=c1[nH]cnc2c1ncn2C1OC(CO)C(O)C1O.O=c1[nH]cnc2c1ncn2C1OC(CO)C(O)C1O.[Cl][Pt][Cl] (stereo unspecified)
inactive: endpoint: mean survival time, dose: 12.5 mg/kg/injection, schedule: Q01DX009 (ip), vehicle: water 103 % of control | endpoint: mean survival time, dose: 25.0 mg/kg/injection, schedule: Q01DX009 (ip), vehicle: water 101 % of control | endpoint: mean survival time, dose: 50.0 mg/kg/injection, schedule: Q01DX009 (ip), vehicle: water 101 % of control | endpoint: mean survival time, dose: 100.0 mg/kg/injection, schedule: Q01DX009 (ip), vehicle: water 101 % of control | endpoint: mean survival time, dose: 200.0 mg/kg/injection, schedule: Q01DX009 (ip), vehicle: water 97 % of control

CCCC(C#N)(CCC)C(=O)OCC
inactive: endpoint: mean survival time, dose: 12.5 mg/kg/injection, schedule: Q01DX001 (ip), vehicle: Klucel (hydroxypropylcellulose) (HPC) 102 % of control | endpoint: mean survival time, dose: 25.0 mg/kg/injection, schedule: Q01DX001 (ip), vehicle: Klucel (hydroxypropylcellulose) (HPC) 99 % of control | endpoint: mean survival time, dose: 50.0 mg/kg/injection, schedule: Q01DX001 (ip), vehicle: Klucel (hydroxypropylcellulose) (HPC) 99 % of control

NC(=O)C1CC=CCC1 (stereo unspecified)
inactive: endpoint: mean survival time, dose: 25.0 mg/kg/injection, schedule: Q04DX002 (ip), vehicle: saline with Tween-80 110 % of control | [6] 98 % of control | [7] 94 % of control | [8] 105 % of control

O=C(O)c1ccc(P(=O)(O)O)cc1[N+](=O)[O-]
inactive: [9] 91 % of control | [10] 86 % of control

O=C(c1ccccc1Cl)n1c2c(c3ccccc31)CCCC2
inactive: [11] 110 % of control | [3] 101 % of control | [12] 103 % of control | [4] 95 % of control | [13] 96 % of control | [5] 97 % of control

CN(N=O)c1ccc(CC2CCc3ccccc32)cc1 (stereo unspecified)
inactive: [14] 93 % of control | [15] 98 % of control | [16] 101 % of control

CCOC(=O)C(OC(=O)CC)c1ccccc1 (stereo unspecified)
inactive: [11] 96 % of control | [12] 100 % of control | [13] 102 % of control

CC(C)(C)NO
inactive: [17] 100 % of control | [18] 96 % of control | [19] 100 % of control

O=C(O)CSc1c(Cl)c(=O)oc2ccc(Cl)cc12
inactive: endpoint: median survival time, dose: 6.25 mg/kg/injection, schedule: Q01DX009 (ip), vehicle: Klucel (hydroxypropylcellulose) (HPC) 101 % of control | endpoint: median survival time, dose: 12.5 mg/kg/injection, schedule: Q01DX009 (ip), vehicle: Klucel (hydroxypropylcellulose) (HPC) 101 % of control | endpoint: median survival time, dose: 25.0 mg/kg/injection, schedule: Q01DX009 (ip), vehicle: Klucel (hydroxypropylcellulose) (HPC) 97 % of control | endpoint: median survival time, dose: 50.0 mg/kg/injection, schedule: Q01DX009 (ip), vehicle: Klucel (hydroxypropylcellulose) (HPC) 94 % of control | endpoint: median survival time, dose: 100.0 mg/kg/injection, schedule: Q01DX009 (ip), vehicle: Klucel (hydroxypropylcellulose) (HPC) 108 % of control | endpoint: median survival time, dose: 200.0 mg/kg/injection, schedule: Q01DX009 (ip), vehicle: Klucel (hydroxypropylcellulose) (HPC) 104 % of control

O=C(O)C1(Br)CCC1
inactive: endpoint: mean survival time, dose: 12.5 mg/kg/injection, schedule: Q01DX005 (ip), vehicle: saline with Tween-80 89 % of control | [20] 100 % of control | endpoint: mean survival time, dose: 25.0 mg/kg/injection, schedule: Q01DX005 (ip), vehicle: saline with Tween-80 101 % of control | [9] 89 % of control | endpoint: mean survival time, dose: 50.0 mg/kg/injection, schedule: Q01DX005 (ip), vehicle: saline with Tween-80 108 % of control | [10] 93 % of control | [6] 97 % of control | endpoint: mean survival time, dose: 100.0 mg/kg/injection, schedule: Q01DX005 (ip), vehicle: saline with Tween-80 97 % of control | [2] 89 % of control | [7] 94 % of control

O=C(CC(=O)c1ccccc1)c1ccccc1.O=C(CC(=O)c1ccccc1)c1ccccc1.[Cl][Sn][Cl]
inactive: [3] 90 % of control | [4] 94 % of control

O=C(NC(CO)C(O)c1ccc(N=Nc2cccc3ccccc23)cc1)C(Cl)Cl (stereo unspecified)
inactive: [11] 100 % of control | [12] 101 % of control | [13] 101 % of control

O=C(CCCCCCCCC(=O)N/N=C\c1ccccc1O)N/N=C\c1ccccc1O
inactive: [1] 97 % of control | [3] 98 % of control | [4] 93 % of control | [5] 93 % of control

COc1ccccc1NC(=O)OCC#CCOC(=O)Nc1ccccc1OC
inactive: [14] 91 % of control | [15] 91 % of control | [16] 92 % of control

CC(=O)OC1C(CNC(=O)Oc2ccccc2)OC(n2cnc3c(=O)[nH]c(N)nc32)C1OC(C)=O (stereo unspecified)
inactive: [17] 88 % of control | [18] 94 % of control | [19] 91 % of control

Fc1ccc(NC(=S)SCc2ccc(Cl)c(Cl)c2)cc1F
inactive: [20] 98 % of control | endpoint: mean survival time, dose: 12.5 mg/kg/injection, schedule: Q01DX009 (ip), vehicle: suspension in saline 98 % of control | [9] 101 % of control | endpoint: mean survival time, dose: 25.0 mg/kg/injection, schedule: Q01DX009 (ip), vehicle: suspension in saline 108 % of control | endpoint: mean survival time, dose: 50.0 mg/kg/injection, schedule: Q01DX009 (ip), vehicle: Klucel (hydroxypropylcellulose) (HPC) 112 % of control | [10] 98 % of control | endpoint: mean survival time, dose: 50.0 mg/kg/injection, schedule: Q01DX009 (ip), vehicle: suspension in saline 103 % of control | [14] 107 % of control | [2] 95 % of control | endpoint: mean survival time, dose: 100.0 mg/kg/injection, schedule: Q01DX009 (ip), vehicle: suspension in saline 104 % of control | [15] 91 % of control

CCOCCNCc1ccc(Cl)c(Cl)c1
inactive: [3] 93 % of control | [4] 94 % of control

COc1cc2ccc(/C(C)=N/OC(C)=O)cc2cc1OC
inactive: [11] 100 % of control | [12] 102 % of control | [13] 97 % of control

CCOC(=O)c1ccc(NC(=O)Oc2ccc(NC(C)=O)cc2)cc1
inactive: [11] 95 % of control and 102 % of control | [7] 91 % of control and 94 % of control | [3] 89 % of control | [12] 96 % of control and 100 % of control | [8] 94 % of control and 105 % of control | [4] 86 % of control | [13] 92 % of control and 96 % of control | endpoint: mean survival time, dose: 400.0 mg/kg/injection, schedule: Q04DX002 (ip), vehicle: saline with Tween-80 92 % of control | [5] 86 % of control
